Assay results reported in the NIST ThermoML archive (doi:10.1016/j.jct.2010.07.006).
Where “and” joins values, the source holds several entries; their conditions need not be identical. Equal entries are not always repeated. ± gives the expanded uncertainty stated by the source.

Settings: Crystal, Calculated from knudsen effusion weight loss

Cc1cc(C(=O)O)c(C)o1 [2,5-dimethyl-3-furancarboxylic acid]
Settings | vapor or sublimation pressure
309.19 K | 0.0001409 ± 7.1e-06 kPa and 0.000132 ± 7e-06 kPa and 0.0001359 ± 6.8e-06 kPa
311.12 K | 0.0001806 ± 9.1e-06 kPa and 0.0001768 ± 8.9e-06 kPa and 0.0001708 ± 8.6e-06 kPa
313.08 K | 0.0002273 ± 1.1e-05 kPa and 0.0002279 ± 1.1e-05 kPa and 0.0002259 ± 1.1e-05 kPa
315.18 K | 0.0002809 ± 1.4e-05 kPa and 0.0002804 ± 1.4e-05 kPa and 0.0002914 ± 1.5e-05 kPa
317.12 K | 0.0003673 ± 1.8e-05 kPa and 0.0003617 ± 1.8e-05 kPa and 0.0003524 ± 1.8e-05 kPa
319.08 K | 0.0004503 ± 2.3e-05 kPa and 0.0004556 ± 2.3e-05 kPa and 0.000449 ± 2.2e-05 kPa
321.18 K | 0.0005801 ± 2.9e-05 kPa and 0.0005612 ± 2.8e-05 kPa and 0.000567 ± 2.8e-05 kPa
323.09 K | 0.0007336 ± 3.7e-05 kPa and 0.0007218 ± 3.6e-05 kPa and 0.0007101 ± 3.6e-05 kPa
325.07 K | 0.0009185 ± 4.6e-05 kPa and 0.000908 ± 4.6e-05 kPa and 0.0008953 ± 4.5e-05 kPa
325.19 K | 0.0009292 ± 4.6e-05 kPa and 0.000927 ± 4.6e-05 kPa and 0.0008864 ± 4.5e-05 kPa
327.1 K | 0.001147 ± 0.00012 kPa and 0.001128 ± 0.00012 kPa and 0.001102 ± 0.00011 kPa
